Source: patent publication US20120277209A1, “PYRAZINE COMPOUNDS AS PHOSPHODIESTERASE 10 INHIBITORS” (Amgen Inc., priority 2009, published 2012)

What follows are compounds tested against PDE10 (UniProt Q9Y233) (assay: PDE10 enzyme inhibition, IMAP TR-FRET assay (MPDE10A7 Enzyme Activity and Inhibition)). Details: IC50 class against PDE10; read-out: IC50.
Assay type: biochemical
Experimental: All compounds were divided in five classes based on their IC50 values against PDE10. The range of the IC50 in each class is as follows:
An IMAP TR-FRET assay was used to analyze the enzyme activity (Molecular Devices Corp., Sunnyvale Calif.). 5 μL of serial diluted PDE10A (BPS Bioscience, San Diego, Calif.) or tissue homogenate was incubated with equal volumes of diluted fluorescein labeled cAMP or cGMP for 60 min in 384-well polystyrene assay plates (Corning, Corning, N.Y.) at room temperature. After incubation, the reaction was stopped by adding 60 μL of diluted binding reagents and was incubated for 3 hours to overnight at room temperature. The plates were read on an Envision (Perkin Elmer, Waltham, Mass.) for time resolved fluorescence resonance energy transfer. The data were analyzed with GraphPad Prism (La Jolla, Calif.).
Enzyme Inhibition. To check the inhibition profile, 5 μL of serial diluted compounds were incubated with 5 μL of diluted PDE10 enzyme (BPS Bioscience, San Diego, Calif.) or tissue homogenate in a 384-well polystyrene assay plate (Corning, Corning, N.Y.) for 30 min at room temperature. After incubation, 10 μL of diluted fluorescein labeled cAMP or cGMP substrate were added and incubated for 60 min at room temperature. The reaction was stopped by adding 60 μL of diluted binding reagents and plates were read on an Envision (Perkin Elmer, Waltham, Mass.) for time resolved fluorescence resonance energy transfer. The data were analyzed with GraphPad Prism (La Jolla, Calif.).
The tabulated IC50 data represent an average IC50 data for each compound.

IC50	Structure (SMILES)
< 25 nM	O=C(c1ccc(Oc2nccnc2-c2ccncc2)cc1)c1nc2ccccc2[nH]1 [Example 124, (1H-benzo[d]imidazol-2-yl)(4-(3-(pyridin-4-yl)pyrazin-2-yloxy)phenyl)methanone]
< 25 nM	O=C(c1ccc(Oc2nccnc2C2CCOCC2)cc1)c1nc2ncccc2[nH]1 [Example 182, (1H-imidazo[4,5-b]pyridin-2-yl)(4-(3-(tetrahydro-2H-pyran-4-yl)pyrazin-2-yloxy)phenyl)methanone]
< 25 nM	CC(=O)OC(C)C(=O)N1CCC(c2nccnc2Oc2ccc(C(=O)c3nc4ccccc4[nH]3)cc2)CC1 (stereo not drawn) [Example 238, 1-(4-(3-(4-(1H-benzo[d]imidazole-2-carbonyl)phenoxy)pyrazin-2-yl)piperidin-1-yl)-1-oxopropan-2-yl acetate]
1000 to 5000 nM	CC(C)Oc1nccnc1Oc1ccc(C(=O)c2nc3ccccc3[nH]2)cc1 [Example 161, (1H-benzo[d]imidazol-2-yl)(4-(3-isopropoxypyrazin-2-yloxy)phenyl)methanone]
< 25 nM	O=C1CN(c2nccnc2Oc2ccc(Nc3nc4ccccc4s3)cc2)CCN1 [Example 90, 4-(3-(4-(benzo[d]thiazol-2-yl-amino)phenoxy)pyrazin-2-yl)-piperazin-2-one]
< 25 nM	CC(=O)N1CCC(c2nccnc2Oc2ccc(C(O)c3nc4ccccc4[nH]3)cc2)CC1 (stereo not drawn) [Example 228, 1-(4-(3-(4-((1H-benzo[d]imidazol-2-yl)(hydroxy)methyl)phenoxy)pyrazin-2-yl)piperidin-1-yl)ethanone]
< 25 nM	c1ccc2sc(Nc3ccc(Oc4nccnc4-c4cncnc4)cc3)nc2c1 [Example 143, N-(4-(3-(pyrimidin-5-yl)pyrazin-2-yloxy)phenyl)benzo[d]thiazol-2-amine]
25 to 100 nM	OCCC1CCN(c2nccnc2Oc2ccc(Nc3nc4ccccc4s3)cc2)CC1 [Example 86, 2-(1-(3-(4-(benzo[d]thiazol-2-ylamino)phenoxy)pyrazin-2-yl)piperidin-4-yl)ethanol]
< 25 nM	O=C(c1ccc(Oc2nccnc2C2CCCOC2)cc1)c1nc2ccccc2[nH]1 (stereo not drawn) [Example 186, 1H-benzimidazol-2-yl(4-((3-(tetrahydro-2H-pyran-3-yl)-2-pyrazinyl)oxy)phenyl)methanone]
1000 to 5000 nM	Fc1cc(Oc2nccnc2Cl)ccc1Nc1nc2ccccc2s1 [Example 103, N-(4-(3-chloropyrazin-2-yloxy)-2-fluorophenyl)benzo[d]thiazol-2-amine]
< 25 nM	O=C(c1ccc(Oc2nccnc2C(=O)NC2(Cc3ccccc3)CC2)cc1)c1nc2ccccc2[nH]1 [Example 260, 3-(4-(1H-benzo[d]imidazole-2-carbonyl)phenoxy)-N-(1-benzylcyclopropyl) pyrazine-2-carboxamide]
< 25 nM	CC(=O)N1CCC(c2nccnc2Oc2ccc(Nc3nc4ccccc4s3)cc2F)CC1 [Example 248, 1-(4-(3-(4-(benzo[d]thiazol-2-ylamino)-2-fluorophenoxy)pyrazin-2-yl)piperidin-1-yl)ethanone]
< 25 nM	N#CCC(=O)N1CCC(c2nccnc2Oc2ccc(C(=O)c3nc4ccccc4[nH]3)cc2)CC1 [Example 247, 3-(4-(3-(4-(1H-benzo[d]imidazole-2-carbonyl)phenoxy)pyrazin-2-yl)piperidin-1-yl)-3-oxopropanenitrile]
25 to 100 nM	OCc1ccc(-c2nccnc2Oc2ccc(Nc3nc4ccccc4s3)cc2)cn1 [Example 146, (5-(3-(4-(benzo[d]thiazol-2-ylamino)phenoxy)pyrazin-2-yl)pyridin-2-yl)methanol]
100 to 250 nM	O=C(c1ccc(Oc2nccnc2Oc2cccnc2)cc1)c1nc2ccccc2[nH]1 [Example 168, (1H-benzo[d]imidazol-2-yl)(4-(3-(pyridin-3-yloxy)pyrazin-2-yloxy)phenyl)methanone]
< 25 nM	O=C1C=C(c2nccnc2Oc2ccc(Nc3nc4ccccc4s3)c(F)c2)CCC1 [Example 136, 3-(3-(4-(benzo[d]thiazol-2-ylamino)-3-fluorophenoxy)pyrazin-2-yl)cyclohex-2-enone]
< 25 nM	COc1ncccc1-c1nccnc1Oc1ccc(C(=O)c2nc3ccccc3[nH]2)cc1 [Example 122, (1H-benzo[d]imidazol-2-yl)(4-(3-(2-methoxypyridin-3-yl)pyrazin-2-yloxy)phenyl)methanone]

Same assay, conditions: PDE10 enzyme inhibition; average IC50 data for each compound; read-out: Average IC50

IC50	Structure (SMILES)
1070 nM	c1ccc2sc(Nc3ccc(Oc4nccnc4-c4ccc(N5CCOCC5)cc4)cc3)nc2c1 [drawing 763]
603 nM	Clc1nccnc1Oc1ccc(Nc2nc3ccccc3s2)cc1
1.22 nM	O=C(c1ccc(Oc2nccnc2[C@@H]2CCCOCC2)cc1)c1nc2ccccc2[nH]1 (stereo in doubt)
0.0455 nM	C[C@@H](O)C(=O)N1CCC(c2nccnc2Oc2ccc(Nc3nc4ccccc4s3)cc2)CC1 (stereo in doubt)
76 nM	c1ccc2sc(Nc3ccc(Oc4nccnc4-c4cnc5[nH]ccc5c4)cc3)nc2c1 [drawing 765]
541 nM	O=C(c1ccc(Oc2nccnc2OCCN2CCCC2)cc1)c1nc2ccccc2[nH]1 [drawing 856]
4.72 nM	C[C@H](Cc1ccccn1)NC(=O)c1nccnc1Oc1ccc(C(=O)c2nc3ccccc3[nH]2)cc1 (racemic)
1.31 nM	Cn1c(C(=O)c2ccc(Oc3nccnc3C3CCOCC3)cc2)nc2ccccc21 [drawing 874]
19 nM	CC(=O)N1CCC(c2nccnc2Oc2ccc(C(O)c3nc4ccccc4[nH]3)cc2)CC1 (stereo not drawn) [drawing 975]
1.21 nM	O=C1CCCC(c2nccnc2Oc2ccc(Nc3nc4ccccc4s3)cc2)C1 (stereo not drawn)
5.84 nM	COc1ncccc1-c1nccnc1Oc1ccc(C(=O)c2nc3cc(F)ccc3[nH]2)cc1 [drawing 931]
0.577 nM	COc1ccc(-c2nccnc2Oc2ccc(C(=O)c3nc4ccccc4[nH]3)cc2)c(OC)n1 [drawing 955]
287 nM	O=C(c1ccc(Oc2nccnc2Cl)cc1)c1nc2ccccc2[nH]1 [drawing 714]
3.73 nM	Cc1noc([C@@H]2CCN(c3nccnc3Oc3ccc(C(=O)c4nc5ccccc5[nH]4)cc3)C2)n1 (stereo in doubt)
4 nM	O=C(c1ccc(Oc2nccnc2N2CCC(CCO)CC2)cc1)c1nc2ccccc2[nH]1
2.54 nM	O[C@@H]1CCC[C@@H](c2nccnc2Oc2ccc(Nc3nc4ccccc4s3)cc2)C1 [drawing 912]
1.32 nM	N#C[C@H]1CCN(c2nccnc2Oc2ccc(C(=O)c3nc4ccccc4[nH]3)cc2)C1 [drawing 829]
0.137 nM	C[C@H](F)C(=O)N1CCC(c2nccnc2Oc2ccc(C(=O)c3nc4ccccc4[nH]3)cc2)CC1 [drawing 977]

IC50	Structure (SMILES)
1.85 nM	O=C(c1ccc(Oc2nccnc2C2CCSCC2)cc1)c1nc2ccccc2[nH]1 [drawing 932]
1.04 nM	O=C(c1ccc(Oc2nccnc2[C@H]2CC[C@@H](O)CC2)cc1)c1nc2ccccc2[nH]1 [drawing 797]
6.28 nM	COC(=O)C1(c2nccnc2Oc2ccc(Nc3nc4ccccc4s3)cc2)CCOCC1 [drawing 871]
3.18 nM	O=C(c1ccc(Oc2nccnc2-c2cccc3ncccc23)cc1)c1nc2ccccc2[nH]1 [drawing 803]
10.9 nM	COc1ccc(COc2ncccc2-c2nccnc2Oc2ccc(C(=O)c3nc4ccccc4[nH]3)cc2)cc1
12.8 nM	CN1CCC2(CCN(c3nccnc3Oc3ccc(C(=O)c4nc5ccccc5[nH]4)cc3)CC2)C1=O
0.199 nM	O=C1CCC(c2nccnc2Oc2ccc(C(=O)c3nc4ccccc4[nH]3)cc2)CC1 [drawing 911]
5.83 nM	COc1ncccc1-c1nccnc1Oc1ccc(C(=O)c2nc3ccccc3n2CCF)cc1 [drawing 994]
46.4 nM	COc1cc(-c2nccnc2Oc2ccc(Nc3nc4ccccc4s3)cc2)ccn1 [drawing 958]
6.41 nM	O=C1CN(c2nccnc2Oc2ccc(Nc3nc4ccccc4s3)cc2)CCN1 [drawing 749]
0.005 nM	C[C@@H](F)C(=O)N1CCC(c2nccnc2Oc2ccc(C(=O)c3nc4ccccc4[nH]3)cc2)CC1 [drawing 976]
7.72 nM	O=C(c1ccc(Oc2nccnc2C2CCOCC2)cc1)c1nc2ncccc2[nH]1 [drawing 890]
41.8 nM	CC1(C)CCC(=O)[C@H](c2nccnc2Oc2ccc(C(=O)c3nc4ccccc4[nH]3)cc2)C1
7.7 nM	O=C(c1ccc(Oc2nccnc2C2CCNCC2)cc1)c1nc2ccccc2[nH]1 [drawing 999]
5.92 nM	CN1CCC(c2nccnc2Oc2ccc(Nc3nc4ccccc4s3)cc2)CC1 [drawing 966]
2.32 nM	O[C@@H]1CCC[C@H](c2nccnc2Oc2ccc(Nc3nc4ccccc4s3)cc2)C1 (stereo in doubt)
3.3 nM	N#C[C@H]1CCN(c2nccnc2Oc2ccc(Nc3nc4ccccc4s3)cc2)C1 (stereo in doubt)

Same assay, conditions: PDE10 enzyme inhibition; chiral compounds separated from racemic mixtures; read-out: IC50

IC50	Structure (SMILES)
< 25 nM	O=C1CCC[C@@H](c2nccnc2Oc2ccc(Nc3nc4ccccc4s3)cc2)C1 [Example 281, (R)-3-(3-(4-(benzo[d]thiazol-2-ylamino)phenoxy)pyrazin-2-yl)cyclohexanone]
< 25 nM	C[C@H](F)C(=O)N1CCC(c2nccnc2Oc2ccc(C(=O)c3nc4ccccc4[nH]3)cc2)CC1 [Example 278, (S)-1-(4-(3-(4-(1H-benzo[d]imidazole-2-carbonyl)phenoxy)pyrazin-2-yl)piperidin-1-yl)-2-fluoropropan-1-one]
